Patent US10509041B2, “Glucose derivative, and cell imaging method and imaging agent using said derivative” (HIROSAKI UNIVERSITY, priority 2014, dated 2019)

How the values were obtained:
[1] = tested on: mouse insulinoma cells (MIN6); assay: Influence of excessive D-glucose or L-glucose on increase in fluorescence intensity caused by CDG or CLG in MIN6 cells; assay type: cell-based; settings: 100 μM, 37° C. 5 min, MIN6 culture day 13, versus non-excessive glucose control
Method: Whether or not increase in fluorescence intensity caused by the administration of the blue fluorescent D-glucose derivative CDG (100 μM) to the mouse insulinoma cells MIN6 at culture day 13 was inhibited by a large excess of D-glucose or L-glucose was examined. The blue fluorescent L-glucose derivative CLG was similarly analyzed as a control. However, the following conditions were changed.
Although the usual KRB solution contains 129 mM NaCl and 5.6 mM D-glucose, the osmotic pressure of a control solution (non-excessive glucose administration group solution) for this experiment was adjusted to 270 mOsm by substituting a portion of NaCl with choline-Cl, in order to equalize charge and osmotic pressure between the control solution and a KRB solution for excessive glucose administration. Also, the KRB solution for excessive glucose administration was allowed to contain NaCl and glucose according to the composition given below. In this respect, choline-Cl was added thereto in order to equalize osmotic pressure between this solution and the control solution (non-excessive glucose administration group solution).
100 mM NaCl and 5.6 mM D-glucose (non-excessive glucose administration group solution)
100 mM NaCl and 50 mM D-glucose (50 mM excessive D-glucose administration group solution)
100 mM NaCl, 50 mM L-glucose, and 5.6 mM D-glucose (50 mM excessive L-glucose administration group solution)
These dedicated KRB solutions were also used as a solution for preparing CDG and CLG solutions in this Example.
CDG and CLG were placed on different plates for the experiment. A CDG solution (or a CLG solution) prepared using each dedicated KRB solution was administered thereto using an 8-channel pipette (37° C., 5 min). Before the administration, replacement with each dedicated KRB solution was carried out in advance, and the autofluorescence of each well was measured with a fluorescence microplate reader. The time from the start of the replacement to immediately before the administration was approximately 28 minutes.
After the completion of the administration, first, the fluorescent solution in each well was temporarily diluted using 200 μL of the dedicated KRB solution and then diluted using 300 μL of the usual KRB solution.
The influence of the presence of 50 mM L-glucose was also studied as a control in evaluating the influence of the presence of a large excess (50 mM) of D-glucose on increase in fluorescence intensity.

[2] = tested on: neuronal cells of the substantia nigra pars reticulate of the midbrain; assay: Fluorescent imaging of acutely isolated normal neuronal cells; assay type: cell-based, mouse; settings: 3 minutes, 8 minutes after start of washout
Method: The whole amount of the 0.5 mg CLG vial was recovered using 0.73 mL in total of 10% DMSO and dissolved (100 μM) by addition to 14.79 ml of a HEPES solution for image acquisition according to the method described in Non Patent Literature 2. […]
150 mM NaCl, 5 mM KCl, 1 mM MgCl2, 2 mM CaCl2, and 10 mM HEPES (the pH of the solution was adjusted to 7.4 with a 1 M tris(2-amino-2-hydroxymethyl-1,3-propanediol) solution). The concentration of glucose was set to 10 mM. 0.1 mM carbenoxolone (Sigma-Aldrich, #C4790) was added thereto for the purpose of inhibiting the entrance and exit of fluorescently labeled glucose by way of gap junction/hemichannel. This HEPES solution for image acquisition was used for preparing the CLG solution and the mixed solution with the additional fluorescent sugar derivative.
Neuronal cells […] to the method described in the previous reports of the inventors (WO2010/16587 (Patent Literature 2)) and (WO2012/133688 (Patent Literature 4)) and attached to each glass cover slip coated with poly-L-lysine. Then, the glass cover slip was transferred into the HEPES solution for image acquisition in a perfusion chamber loaded on a stage of a fluorescence microscope, followed by observation.
A silicon plate of 1 mm thickness bored to have a streamline-shaped hole (10 mm wide x 35 mm long) was placed via cover glass onto an aluminum heating control platform (Warner Instruments) having a round hole (diameter: 18 mm) for an objective lens at the bottom, and allowed to be in close contact with the cover glass.
The HEPES solution for image acquisition was warmed in advance in an aluminum syringe heater and supplied to the perfusion chamber through hydrostatic pressure. The perfusion rate was adjusted to 1.3±0.2 mL/min using a flow rate adjuster. Immediately before being introduced to the perfusion chamber, the solution was rewarmed via an inline heater so that the actually measured temperature of the perfusate in an observation region in the chamber was adjusted to 32.5±1° C. The CLG/2-TRLG mixed solution was able to be supplied in the same way as above and was switched with the HEPES solution for image acquisition using an electromagnetic valve capable of controlling the opening and closing of the channel. The solution was removed using a vacuum pump capable of controlling suction pressure.
The fluorescence microscope used was NIKON ECLIPS-Ti, and images were acquired with a CCD camera Retiga 2000R.
CLG and 2-TRLG were each detected using the following filter cassette.
Excitation 360/40 nm, Dichroic mirror 400 nm, Emission 460/50 nm.
Excitation 567/15 nm, Dichroic mirror 593 nm, Emission 593 nm Long pass.
The objective lens used in this method was ×20 dry lens (Nikon Plan S Fluor). The images were acquired at 1600×1200 pixels. […]

## O=c1ccc2ccc(NC3C(O)OC(CO)[C@@H](O)[C@@H]3O)cc2o1 (stereo partly drawn) [CDG, 2-deoxy-2-(2-oxo-2H-chromen-7-yl)amino-D-glucose]
[1]
  effect of 50 mM D-glucose on increase in fluorescence intensity caused by administration: significantly suppressed
  effect of 50 mM L-glucose on increase in fluorescence intensity caused by administration: not suppressed
[2]; 100 μM CDG+20 μM 2-TRLG mixed solution, 14-day-old mouse
  uptake into normal neuronal cells: taken into the normal neuronal cells

## O=c1ccc2ccc(NC3C(O)OC(CO)[C@H](O)[C@H]3O)cc2o1 (stereo partly drawn) [CLG, 2-deoxy-2-(2-oxo-2H-chromen-7-yl)amino-L-glucose]
[1]
  effect of 50 mM D-glucose on increase in fluorescence intensity caused by administration: slightly inhibited
  effect of 50 mM L-glucose on increase in fluorescence intensity caused by administration: not inhibited
[2]; 100 μM CLG+20 μM 2-TRLG mixed solution, 21-day-old mouse
  uptake into normal neuronal cells: not observed
